Measurements: US20150038435A1, “N-TERMINALLY MODIFIED OLIGOPEPTIDES AND USES THEREOF” (Novo Nordisk A/S, priority 2012, published 2015)
Non-standard residues stand in square brackets, D forms with d. Residues, ends and D or L forms follow the SMILES beside them. *: point of attachment. Lauroyl = CCCCCCCCCCCC(=O)*

What was measured:
[1] = Rat PK following intraintestinal injection; format: in vivo; details: of insulin, 60 nmol/kg intraintestinal, Composition 3: 3% compound, propylene glycol, diglycerol caprylate, Tween 20
Procedure: Anaesthetized rats were dosed intraintestinally (into jejunum) with reference compounds and N-terminally acylated peptide or oligopeptides of the invention. Plasma concentrations of the employed compounds as well as changes in blood glucose were measured at specified intervals for 4 hours or more post-dosing. Pharmacokinetic parameters were subsequently calculated using WinNonLin Professional (Pharsight Inc., Mountain View, Calif., USA).
The compositions for the intraintestinal injection model were prepared for example according to the following composition (in weight %):
The anesthetized rat was placed on a homeothermic blanket stabilized at 37° C. A 20 cm polyethylene catheter mounted a 1-ml syringe was filled with insulin composition or vehicle. A 4-5 cm midline incision was made in the abdominal wall. […]
Blood samples for the determination of whole blood glucose concentrations were collected in heparinised 10 μl capillary tubes by puncture of the capillary vessels in the tail tip. Blood glucose concentrations were measured after dilution in 500 μl analysis buffer by the glucose oxidase method using a Biosen autoanalyzer (EKF Diagnostic Gmbh, Germany). […]
Samples were collected for determination of the plasma insulin concentration. […] Plasma concentrations of the insulin analogues were measured in a immunoassay. […]

[2] = test system: GI juice; assay: Inhibition of GI juice degradation of insulin analogue and GLP-1 analogue; format: biochemical; details: compound 1 mM, rat GI juice
Procedure: 96 well plates were coated by incubating with 0.4% Bovine serum albumin (BSA) solution for minimum of 60 min. […] 1% TFA), 30 μl of a substrate (100 μM insulin analogue or GLP-1 analogue in buffer) and 30 μl of N-terminally acylated peptide or oligopeptide of the invention (10 mM) were added. The plates were pre-incubated (before adding GI juice) for 60 min at 37° C. After addition of 30 μl of GI juice (10-times diluted in buffer), the plates were incubated for 60 min/37° C. on shaker. […] 1% TFA and spun down in plates (4500 rpm for 10 min). Samples were diluted 5 times with the buffer prior to LC-MS analysis. Standard samples (0.1, 0.5, 1.0, 5.0, 10.0 μM) were prepared and treated as the samples. Standard curve was analysed both at the beginning and the end of the sequence. Two replicates of each tested conditions were included. Ion suppression was assessed by analyzing a standard at 1 μM and at 10 μM with 1 mM inhibitor present. Intact insulin or GLP-1 analoues were determined at each sample. The results were plotted against the incubation time. […] The half-lives were expressed relative to the half-live of the insulin or GLP-1 analogue without inhibitor present by dividing the half-lives obtained in the presence of inhibitor with those obtained in the absence of inhibitors. GI juice was prepared from male Sprague Dawley rats (200-250 g) by excising approximately 20 cm piece of mid jejunum and rinsing the inside with 2.5 ml 0.9% sodium chloride solution. The sodium chloride solution was collected in a centrifuge tube, pooled from all rats (20) and centrifuged at 4500 rpm./10 min/4° C. The supernatant was aliquoted in tubes and stored at −80° C.
A14E, B25H, B29K(N(eps)Octadecanedioyl-γGlu-OEG-OEG), desB30 human insulin and N-epsilon26-[2-(2-{2-[2-(2-{2-[(S)-4-Carboxy-4-(17-carboxyheptadecanoylamino)-butyrylamino]ethoxy}ethoxy)acetylamino]ethoxy}ethoxy)acetyl][Aib8,Arg34]GLP-1-(7-37) were used as standards in this assay.
For experiments repeated more than two times, standard deviation is given

[3] = target: Chymotrypsin; assay: Inhibition of insulin degradation, HPLC assay (Example 201); format: biochemical; details: for Ki: substrate A14E, B25H, B29K(N(eps)Octadecanedioyl-γGlu-OEG-OEG), desB30 human insulin
Procedure: Degradation using duodenum lumen enzymes (prepared by filtration of duodenum lumen content) from SPD rats.
Each HPLC vial contained Dulbecco's phosphate buffer saline (DPBS, Invitrogen catalogue #14190-094), A14E, B25H, B29K(N(eps)Octadecanedioyl-γGlu-OEG-OEG), desB30 human insulin, N-terminally acylated peptide or oligopeptide of the invention and enzyme (chymotrypsin, trypsin, elastase or duodenum lumen enzymes).
The assay was performed in an HPLC autosampler equilibrated at 37° C., at specified time points, aliquots were injected directly onto an HPLC column and the amount of the intact A14E, B25H, B29K(N(eps)Octadecanedioyl-γGlu-OEG-OEG), desB30 human insulin was determined. Degradation half life was determined by exponential fitting of the data (for example, single exponential decay, 2 parameters, Sigma Plot version 11, Systat Software) and normalized to half time determined for the reference insulins, or human insulin in each assay. […] This was done by plotting the half life achieved with different concentrations of the N-terminally acylated peptide or oligopeptides of the invention as a function of their concentrations and fitting the experimental results using, for example, sigmoidal logistic regression (2 parameters, Sigma Plot v 11). Inhibition constants for the interaction between the N-terminally acylated peptide or oligopeptides of the invention and proteolytic enzymes were also obtained by performing the assay described above with varying concentrations of the inhibitor and substrate and analyzing the results, for example, by double reciprocal transformation as known to the person skilled in the art and described for example in Hubalek, F. et al., J. Med. Chem. 47, 1760-1766 (2004). Other algorithms known to the person skilled in the art may also be used to determine inhibition constants from the results.

Bioavailability [1] [%] | kind of enzyme inhibition ([3]; chymotrypsin, insulin analogue as substrate) | Ki ([3]; chymotrypsin) [µM] | Ki [3] [µM] | SMILES | Half Life fold increase (over solution w/o N-terminally acylated (oligo)peptide) [2] | Half Life of insulin analogue ([2]; 37° C.) [min]
4.5 ± 2.7 |  |  |  | CCCCCCCCCCCC(=O)N[C@H](C)C(=O)N[C@H](C)C(=O)N1CCC[C@@H]1C(=O)N[C@H](Cc1ccccc1)C(=O)O [Example 1, N-dodecanoyl-DAla-DAla-DPro-DPhe-OH] (Lauroyl-[dA][dA][dP][dF]-OH) | 5.0 | 13.0
 | mixed inhibition | ~15 | 15 | CCCCCCCCCCCC(=O)N[C@@H](C)C(=O)N[C@@H](C)C(=O)N1CCC[C@H]1C(=O)N[C@@H](Cc1ccccc1)C(=O)O [Example 34, N-dodecanoyl-Ala-Ala-Pro-Phe-OH] (Lauroyl-AAPF-OH) |  | 
